Melting point and EC50 data for 19 molecules are collected here from patent US9073907B2, “Thiazoles derivatives and their use as positive allosteric modulators of metabotropic glutamate receptors” (Addex Pharma S.A., priority 2009, dated 2015).

The target in data set [1] is T1, recombinant human mGluR4a receptors (Homo sapiens, UniProt Q14833).
T1 construct: expressed in transfected cells
Description: mGluR4 assay on HEK-expressing human mGluR4: fluorescent cell based Ca2+ mobilization assay (FLIPR, Fluo-4). As to conditions: enhancement of EC25 glutamate response in HEK-293 cells expressing hmGluR4; mean of at least three independent experiments performed in duplicate; read-out: Ca^2+ Flux (mean EC50). An excerpt:
mGluR4 Assay on HEK-Expressing Human mGluR4 The compounds of the present invention are positive allosteric modulators of mGluR4 receptor. Their activity was examined on recombinant human mGluR4a receptors by detecting changes in intracellular Ca^2+ concentration, using the fluorescent Ca^2+-sensitive dye Fluo-4-(AM) and a Fluorometric Imaging Plate Reader (FLIPR, Molecular Devices, Sunnyvale, Calif.). The cDNA encoding the human metabotropic glutamate receptor (hmGluR4), (accession number NM_000841.1, NCBI Nucleotide database browser), was subcloned into an expression vector containing also the hygromycin resistance gene. In parallel, the cDNA encoding a G protein allowing redirection of the activation signal to intracellular calcium flux was subcloned into a different expression vector containing also the puromycin resistance gene. Transfection of both these vectors into HEK293 cells with PolyFect reagent (Qiagen) according to supplier's protocol, and hygromycin and puromycin treatment allowed selection of antibiotic resistant cells which had integrated stably one or more copies of the plasmids. Positive cellular clones expressing hmGluR4 were identified in a functional assay measuring changes in calcium fluxes in response to glutamate or selective known mGluR4 orthosteric agonists and antagonists. HEK-293 cells expressing hmGluR4 were maintained in media containing DMEM, dialyzed Fetal Calf Serum (10%), Glutamax™ (2 mM), Penicillin (100 units/mL), Streptomycin (100 μg/mL), Geneticin (100 μg/mL) and Hygromycin-B (40 μg/mL) and puromycin (1 μg/mL) at 37° C./5% CO2. Human mGluR4 HEK-293 cells were plated out 24 hours prior to FLIPR^384 assay in black-walled, clear-bottomed, poly-L-ornithine-coated 384-well plates at a density of 25,000 cells/well in a glutamine/glutamate free DMEM medium containing foetal bovine serum (10%), penicillin (100 units/mL) and streptomycin (100 μg/mL) at 37° C./5% CO2. On the day of the assay, the medium was aspirated and the cells were loaded with a 3 μM solution of Fluo4-AM (LuBioScience, Lucerne, Switzerland) in 0.03% pluronic acid. After 1 hour at 37° C./5% CO2, the non incorporated dye was removed by washing cell plate with the assay buffer and the cells were left in the dark at room temperature for […] before testing. All assays were performed in a pH 7.4 buffered-solution containing 20 mM HEPES, 143 mM NaCl, 6 mM KCl, 1 mM MgSO4, 1 mM CaCl2, 0.125 mM sulfapyrazone and 0.1% glucose. After 10 s of basal fluorescence recording, various concentrations of the compounds of the invention were added to the cells. Changes in fluorescence levels were first monitored for 180 s in order to detect any agonist activity of the compounds. Then the cells were stimulated by an EC25 glutamate concentration for an additional 110 s in order to measure enhancing activities of the compounds of the invention. EC25 glutamate concentration is the concentration giving 25% of the maximal glutamate response. The concentration-response curves of representative compounds of the present invention were generated using the Prism GraphPad software (Graph Pad Inc, San Diego, USA). The curves were fitted to a four-parameter logistic equation: (Y=Bottom+(Top−Bottom)/(1+10^((Log EC50−X)*Hill Slope) allowing the determination of EC50 values. The Table 3 below represents the mean EC50 obtained from at least three independent experiments of selected molecules performed in duplicate.
For orientation: A change in cytosolic calcium serves as a functional read-out for many receptors and channels.

“And” between values parts separate entries of the source, which are not always exact repeats. Identical values can stand only once. Bounds are passed on as bounds.

T1 sequence (Q14833 33-912): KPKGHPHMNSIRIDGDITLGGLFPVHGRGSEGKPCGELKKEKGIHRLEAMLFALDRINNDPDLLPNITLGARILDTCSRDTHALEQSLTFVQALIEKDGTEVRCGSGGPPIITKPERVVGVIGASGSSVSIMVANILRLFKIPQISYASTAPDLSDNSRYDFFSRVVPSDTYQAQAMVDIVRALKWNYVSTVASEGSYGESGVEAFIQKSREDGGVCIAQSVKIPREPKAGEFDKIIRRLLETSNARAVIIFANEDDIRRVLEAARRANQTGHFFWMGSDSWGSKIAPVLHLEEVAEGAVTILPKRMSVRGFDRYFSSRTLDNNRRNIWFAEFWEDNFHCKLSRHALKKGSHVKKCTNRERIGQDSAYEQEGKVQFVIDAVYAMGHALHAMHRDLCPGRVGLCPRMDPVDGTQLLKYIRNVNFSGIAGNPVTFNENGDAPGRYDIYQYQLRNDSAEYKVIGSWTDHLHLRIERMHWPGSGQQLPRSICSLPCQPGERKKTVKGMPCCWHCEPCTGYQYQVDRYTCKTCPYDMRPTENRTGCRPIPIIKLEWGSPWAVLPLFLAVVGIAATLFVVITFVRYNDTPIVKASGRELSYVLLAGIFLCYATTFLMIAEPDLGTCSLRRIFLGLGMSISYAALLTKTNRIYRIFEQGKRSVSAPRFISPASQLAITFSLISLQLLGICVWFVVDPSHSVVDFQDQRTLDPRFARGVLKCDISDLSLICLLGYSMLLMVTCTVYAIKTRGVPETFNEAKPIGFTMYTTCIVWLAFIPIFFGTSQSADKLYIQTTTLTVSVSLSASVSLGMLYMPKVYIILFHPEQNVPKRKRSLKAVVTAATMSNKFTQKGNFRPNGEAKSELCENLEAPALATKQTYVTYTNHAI

Consider `CC(=O)NCn1cc(-c2nc(Nc3ccccn3)sc2C)cn1` [Compound 1-61, N-((4-(5-Methyl-2-(pyridin-2-ylamino)thiazol-4-yl)-1H-pyrazol-1-yl)methyl)acetamide], for which the melting point (usually the temperature of the solid-liquid transition) was 175 °C and 180 °C. Besides, the EC50 – broadly, the concentration needed to bring the measured effect to its halfway point – in data set [1] lay in the range of 1000 to 10000 nM. Consider `COCc1sc(Nc2ccccn2)nc1-c1cn[nH]c1` [Compound 1-18, 5-(Methoxymethyl)-4-(1H-pyrazol-4-yl)-N-(pyridin-2-yl)thiazol-2-amine], for which the EC50 in data set [1] fell in the range of 100 to 1000 nM. As to `Clc1[nH]ncc1-c1csc(Nc2ccccn2)n1` [Compound 1-17, 4-(5-Chloro-1H-pyrazol-4-yl)-N-(pyridin-2-yl)thiazol-2-amine], the melting point was in the range of 299 to 304 °C. Also, the EC50 in data set [1] is under 100 nM. For the molecule `Cc1sc(Nc2ncccn2)nc1-c1cn[nH]c1` [Compound 1-16, 5-Methyl-4-(1H-pyrazol-4-yl)-N-(pyrimidin-2-yl)thiazol-2-amine], the melting point was 298 to 300 °C. Besides, the EC50 in data set [1] is under 100 nM. As for `N#Cc1[nH]ncc1-c1csc(Nc2ccccn2)n1` [Compound 1-26, 4-(2-(Pyridin-2-ylamino)thiazol-4-yl)-1H-pyrazole-5-carbonitrile], the EC50 in data set [1] fell in the range of 100 to 1000 nM. `Cn1ccc(Nc2nc(-c3cn[nH]c3)cs2)n1` [Compound 1-27, N-(1-Methyl-1H-pyrazol-3-yl)-4-(1H-pyrazol-4-yl)thiazol-2-amine] came in with a melting point of 209 to 211 °C. For the same molecule, the EC50 in data set [1] was 1000 to 10000 nM. For the molecule `CN(C)c1[nH]ncc1-c1csc(Nc2ncccn2)n1` [Compound 1-65, 4-(5-(Dimethylamino)-1H-pyrazol-4-yl)-N-(pyrimidin-2-yl)thiazol-2-amine], the EC50 in data set [1] was in the range of 1000 to 10000 nM. The molecule `Cc1sc(Nc2cccc(C#N)n2)nc1-c1cn[nH]c1` [Compound 1-1, 6-(5-Methyl-4-(1H-pyrazol-4-yl)thiazol-2-ylamino)picolinonitrile] showed a melting point of 331 °C. The EC50 in data set [1] lay within 100 to 1000 nM. Molecule `Fc1cccc(Nc2nc(-c3cn[nH]c3)c(F)s2)n1` [Compound 1-10, 5-Fluoro-N-(6-fluoropyridin-2-yl)-4-(1H-pyrazol-4-yl)thiazol-2-amine] registered a melting point of 237 °C. The EC50 in data set [1] was under 100 nM. Consider `c1ccc(Nc2nc(-c3cn[nH]c3)c(N3CCCC3)s2)nc1` [Compound 1-8, 4-(1H-Pyrazol-4-yl)-N-(pyridin-2-yl)-5-(pyrrolidin-1-yl)thiazol-2-amine], for which the melting point came to 209 °C. In data set [1], the EC50 is 1000 to 10000 nM. On to `c1ccc(Nc2nc(-c3c[nH]nc3CC3CC3)cs2)nc1` [Compound 1-6, 4-(3-(Cyclopropylmethyl)-1H-pyrazol-4-yl)-N-(pyridin-2-yl)thiazol-2-amine], for which the EC50 in data set [1] lay within 100 to 1000 nM.

With `c1ccc(Nc2nc(-c3cn[nH]c3)c(CN3CCOCC3)s2)nc1` [Compound 1-21, 5-(Morpholinomethyl)-4-(1H-pyrazol-4-yl)-N-(pyridin-2-yl)thiazol-2-amine], the EC50 in data set [1] fell in the range of 1000 to 10000 nM. For the molecule `Cc1cnc(Nc2nc(-c3cn[nH]c3)c(C)s2)nc1` [Compound 1-34, 5-Methyl-N-(5-methylpyrimidin-2-yl)-4-(1H-pyrazol-4-yl)thiazol-2-amine], the melting point is over 410 °C.

With `Cc1sc(Nc2nccc(C3CC3)n2)nc1-c1cn[nH]c1` [Compound 1-62, N-(4-Cyclopropylpyrimidin-2-yl)-5-methyl-4-(1H-pyrazol-4-yl)thiazol-2-amine], the melting point lay within 228 to 231 °C. Still for that read-out and setting: next, `Clc1sc(Nc2ncccn2)nc1-c1cn[nH]c1` [Compound 1-45, 5-Chloro-4-(1H-pyrazol-4-yl)-N-(pyrimidin-2-yl)thiazol-2-amine]: 310 to 313 °C; `Cc1sc(Nc2ccccn2)nc1-c1cnn(C(=O)N(C)C)c1` [Compound 1-36, N,N-Dimethyl-4-(5-methyl-2-(pyridin-2-ylamino)thiazol-4-yl)-1H-pyrazole-1-carboxamide]: 181 to 185 °C; `Cc1cccc(Nc2nc(-c3cn[nH]c3)c(F)s2)n1` [Compound 1-11, 5-Fluoro-N-(6-methylpyridin-2-yl)-4-(1H-pyrazol-4-yl)thiazol-2-amine]: 204 °C. The same measure, in the same setting: next, `Fc1ccc(Nc2nc(-c3cn[nH]c3)c(F)s2)nc1` [Compound 1-28, 5-Fluoro-N-(5-fluoropyridin-2-yl)-4-(1H-pyrazol-4-yl)thiazol-2-amine]: 239 °C; `Cc1ccnc(Nc2nc(-c3c[nH]nc3N3CCCCC3)cs2)n1` [Compound 1-57, N-(4-Methylpyrimidin-2-yl)-4-(3-(piperidin-1-yl)-1H-pyrazol-4-yl)thiazol-2-amine]: 256 °C.
